Source: a melting point compilation (Tetko et al.; mined from patent text by program, amines drawn as free bases though some values may be those of a salt)

Cc1cc(C)cc(-c2[nH]c3ccc(C(C)(C)C(=O)O)cc3c2CCN(CCCCc2ccc(NS(C)(=O)=O)cc2)C(=O)OCc2ccccc2)c1 showed a melting point greater than 102 °C. For CCC(=CC(CNC(=O)c1c(C)noc1C)=NO)C(C)[N+](=O)[O-] (stereo not given), the melting point was 100 to 103 °C. Cc1cc(F)c([N+](=O)[O-])cc1[N+](=O)[O-] gave a melting point of 76 °C. Work on Cc1ccccc1-c1cccc2c1CNC(=O)N2c1ccccc1 yielded a melting point of 236 to 238 °C. Molecule Cc1nn(C)c2nc(N(CC(C)C)CC3CC3)c(CN(Cc3cc(C(F)(F)F)cc(C(F)(F)F)c3)c3nnn(C)n3)cc12 has a melting point of 99 to 101 °C. Molecule COc1c(Br)c(CO)c(OC)c2ccccc12 has a melting point of 115 to 117 °C. CC(C)(C)c1nc(CO)c[nH]1 gave a melting point of 212 to 221 °C. Work on ON=Cc1cn2c(n1)COc1ccccc1-2 yielded a melting point of 232 to 233 °C. For CCCCc1ccc(/C(Cl)=C/c2ccc(Br)cc2)cc1, the melting point was 59 to 61 °C. For CC#CC(C)(C)NC(=O)C(CC)Oc1cncc(C#N)c1 (stereo not given), the melting point was 112 to 113 °C. N#CCc1ccc2nc(-c3ccccc3)oc2c1 gave a melting point of 144 °C. In the case of COc1c(OC)c(OC(C)=O)c2ccc(Cl)cc2c1O, the melting point was 155 to 156 °C. With CCNC(=O)Oc1cccc(CCNC(=O)/C=C/c2cccnc2)c1 the melting point was 130 °C. CCOc1ccc2[nH]c(=O)n(N3CCN(C)CC3)c2c1 gave a melting point of 108 °C. Work on COc1c(C#N)c(C#N)c(OC)c2ccccc12 yielded a melting point of 190 °C. For CC1(C)CC(c2ccc(Cl)cc2)=C(c2ccc(S(N)(=O)=O)cc2)C1, the melting point was 144 to 145 °C. In the case of Cc1cc2c(c3occ(-c4ccc(C(C)C)cc4)c13)CCC2, the melting point was 70 to 72 °C. For CCN(CC)C(=O)NCCOC(=O)c1cc(Oc2ccc(C(F)(F)F)cc2Cl)ccc1[N+](=O)[O-], the melting point was 89 to 90 °C. CN(C)C(=O)OC1c2ccccc2C(=O)N1c1ccc2ccc(Cl)nc2n1 (stereo not given) gave a melting point of 217 to 218 °C. For CC1(C)CS(=O)(=O)CC(C)(C)N1N, the melting point was 122 °C. Work on O=C(C#Cc1ccc(Br)cc1)Nc1ccccc1 yielded a melting point of 159 to 160 °C. Molecule N#CCc1ccc(NC(=O)C=C2CC(C(=O)O)Nc3cc(Cl)cc(Cl)c32)cc1 (racemic) has a melting point of 200 to 202 °C. O=C(O)c1ccc(I)nc1 gave a melting point of 177 to 179 °C. CCCC(=O)N[C@H]1CC[C@H](CCN2CCC(c3cccc4c3CCO4)CC2)CC1 showed a melting point of 196 °C. Work on NS(=O)(=O)c1cc2cc(CCOCc3ccccc3)ccc2s1 yielded a melting point of 136 to 138 °C. With O=[N+]([O-])c1cnn(C2CC2)c1 the melting point was 44 to 45 °C. CC1(c2ccc(N)cc2)C(=O)c2c(Cl)cc(Cl)cc2N(Cc2ccccc2)C1=O (stereo not given) gave a melting point of 209 to 210 °C. O=C(NC12CC3CC(CC(C3)C1)C2)c1nc(Br)n(-c2ccccc2)c1Br gave a melting point of 228 to 231 °C. Molecule CCOC(=O)C1CCNCC1c1nc2cc(-c3ccc(OC)cc3)nnc2c2ccccc12 (stereo not given) has a melting point of 160 to 161 °C. NS(=O)(=O)c1ccc2[nH]cc(CCN3C(=O)c4ccccc4C3=O)c2c1 gave a melting point of 285 to 290 °C. With c1cnc2c(c1)-c1ncccc1C2(Cc1ccncc1)Cc1ccncc1 the melting point was 133 to 137 °C. CCn1c(CCCO)nc(C(C)C)c1Sc1cc(Cl)cc(Cl)c1 showed a melting point of 73 °C. CC(=O)Oc1cc(C(C)C)ccc1C1(OC(C)=O)C(=O)c2cccc(N)c2C1=O (stereo not given) gave a melting point of 148 to 151 °C. Work on COc1ccc(-c2cc(=O)n(Cc3ccc(F)cc3F)nc2-c2ccc(OC)cc2)cc1 yielded a melting point of 150 to 151 °C. For CNC(=O)C(NC(=O)c1ccc(F)cc1C(F)(F)F)C(C[N+](=O)[O-])c1ccccc1 (stereo not given), the melting point was 223 °C. Work on CN1CCN(c2nn(C(=O)c3ccccc3)c3ccccc23)CC1 yielded a melting point of 104 to 106 °C. For CS(=O)(=O)c1nc(OCc2ccccc2)cc(C(F)(F)F)n1, the melting point was 115 to 118 °C. For COc1cc(C)ccc1-c1nc(C)c(-c2cccnc2)n1O, the melting point was 75 to 80 °C. Cc1ccccc1NS(=O)(=O)c1ccc(NC2=C(Cl)C(=O)c3ccccc3C2=O)cc1 gave a melting point of 265 to 266 °C. Work on CCN(C(=O)n1nnc2cc(Cl)c(Cl)cc21)c1ccccc1 yielded a melting point of 120 °C. With CCCCn1ncc(/C=C(\Cc2cc3c(cc2OC)CCO3)C(=O)O)c1-c1ccc(Cl)cc1OCc1c(Cl)cccc1C(=O)O the melting point was 114 to 116 °C. N#CC(C#N)=C1N(CCCN2CCCCC2)CCCN1CCCN1CCCCC1 gave a melting point of 88 to 90 °C. In the case of Cc1ccc(C(=O)c2cc(-c3cccnc3)c(N3CCOCC3)s2)cc1, the melting point was 134 °C. In the case of COC(=O)c1cc(N)nc(-c2ccc(Cl)c(OC)c2F)n1, the melting point was 188 to 190 °C. CC1CN(c2ccccc2)C(=O)N(c2cccc(C(F)(F)F)c2)C1 (stereo not given) showed a melting point of 121 to 123 °C. NS(=O)(=O)c1ccc(-n2nc(CCCNC(=O)Nc3ccc(Cl)cc3)cc2-c2ccccc2)cc1 showed a melting point of 103 to 110 °C. Molecule Cc1ccc(N(c2ccc(C)cc2)c2ccc(C=Cc3ccccc3O)cc2)cc1 has a melting point of 136 to 138 °C. COC(=O)c1cc(CCNc2ncnc3nccnc23)ccc1Oc1cc(C(F)(F)F)ccn1 showed a melting point of 171 to 172 °C. OC1(c2ccccc2)CCN(CCC2Cc3ccccc3O2)CC1 (stereo not given) showed a melting point of 107 °C. ClCc1nccn1Cc1ccccc1 gave a melting point of 180 to 182 °C.
